{
  "source": "paper PMC12903969",
  "about": "“Discovery of a Novel and Potent Kir4.1 Inhibitor as a Safe and Rapid‐Onset Antidepressant Agent in Mice” (Advanced Science, 2025)",
  "key": {"[1]": {"assay": "Plasma/tissue (kidney) distribution", "assay_type": "in vivo", "conditions": "male, C57BL/6J, mouse, ip, mice (N = 3), 10 mg/kg i.p.", "protocol": "Male C57BL/6J mice were used for both blood–brain penetration and plasma/tissue distribution studies, with mice assigned to three groups: 10 mg kg^−1 JX3212 (n = 3), 20 mg kg^−1 JX3212 (n = 3) for blood–brain penetration, and 10 mg kg^−1 JX3212 for plasma/tissue distribution (all administered via intraperitoneal injection), where mice in the blood–brain penetration groups were fasted for 12 h prior to drug administration and 2 h post‐administration; 1 h after drug administration, 0.2 mL of blood was collected from the retro‐orbital/orbital venous plexus into 1.5 mL heparinized tubes, centrifuged at 11 000 rpm for 5 min to obtain plasma (stored at −80 °C for blood–brain penetration groups), while whole brains were excised for blood–brain penetration groups and whole brains plus kidneys (rinsed with physiological saline, blotted dry on filter paper, and accurately weighed) for the plasma/tissue distribution group; plasma samples (20 µL) were mixed with 20 µL internal standard solution and 300 µL acetonitrile for protein precipitation, vortexed for 15 min, centrifuged at 3700 rpm for 15 min at 4 °C, and the supernatant was collected, whereas brain and kidney samples were homogenized in acetonitrile at 10× tissue weight (8000 rpm, 3 × 30 s), sonicated for 5 min, and processed identically to plasma samples; the concentrations of JX3212 in plasma and tissues were quantified by liquid chromatography–tandem mass spectrometry (LC−MS/MS), with lower limits of quantification set to 50 ng mL^−1 for plasma and 50 ng g^−1 for brain tissue."}, "mice": {"tested_on": "mice", "assay": "Novel object recognition test (NOR)", "assay_type": "in vivo", "conditions": "chronic 10 mg kg−1 per day", "protocol": "This test was designed to assess memory in rodents. The mice were individually exposed to familiar and novel objects. The test consists of three phases: habituation, training, and retention. During habituation, each animal freely traversed an empty cubic arena (≈40 cm per side) for 5 min, then was returned to its home cage. In the subsequent training phase, two identical rectangular objects were fixed 10 cm from opposite walls, and the mouse, introduced with its snout directed toward the center of the distal wall, was allowed to investigate the objects for 5 min. One hour later, in the retention phase, one of the familiar objects was exchanged for a geometrically distinct but comparably sized novel object, and exploration was recorded for 5 min. The positions of familiar and novel objects were systematically randomized across trials to prevent spatial bias. Object exploration was quantified as the duration of direct nose/mouth orientation toward objects within ≤ 2 cm, excluding instances of turning away or sitting on objects. Recognition memory was assessed using the discrimination ratio, calculated as N/(N + F) × 100%, where N represents the exploration time of the novel object and F denotes the exploration time of the familiar object."}, "OBX C57BL/6J mice": {"tested_on": "OBX C57BL/6J mice", "assay": "Olfactory bulbectomy (OBX) model, open field test", "assay_type": "in vivo", "conditions": "30 mg kg−1, within 1 h", "description": "Male C57BL/6J mice (8–12 weeks old) were anesthetized by intraperitoneal injection of tiletamine‐zolazepam‐xylazine. Following confirmation of anesthesia, a midline scalp incision was made to expose the skull, and the bregma was identified as the anatomical reference point. Using a stereotaxic frame (Stoelting), bilateral olfactory bulbs (4 mm anterior to the bregma) were aspirated through a 1‐mm burr hole drilled with a dental drill. Hemostatic sponges were applied to the burr holes, and the incision was closed with 5‐0 silk sutures. The sham‐operated controls underwent identical procedures without bulb aspiration. Prophylactic antibiotic therapy (25% ampicillin, […], i.p.) was administered daily for three consecutive days post‐surgery. The animals were monitored during a 14‐day recovery period prior to behavioral assessments. After euthanasia, successful bulbectomy was verified by gross anatomical inspection, and habenular tissues were dissected on ice for subsequent molecular analyses.\nThis test was used to assess anxiety‐related behaviors in the mice. C57BL/6J mice were individually habituated to a 40 × 40 × 40 cm^3 open field arena under dim light for […]. Locomotor activity during the final 5 min was digitally recorded (30 fps) and analyzed using Tracking Master (Future Life Science (Shanghai) Co., Ltd., Shanghai, China). […]"}, "Kir1.1": {"target": "T1, Kir1.1 (Homo sapiens, UniProt P48048)", "T1 construct": "host or cells: CHO-K1", "T1 sequence (P48048 whole entry)": "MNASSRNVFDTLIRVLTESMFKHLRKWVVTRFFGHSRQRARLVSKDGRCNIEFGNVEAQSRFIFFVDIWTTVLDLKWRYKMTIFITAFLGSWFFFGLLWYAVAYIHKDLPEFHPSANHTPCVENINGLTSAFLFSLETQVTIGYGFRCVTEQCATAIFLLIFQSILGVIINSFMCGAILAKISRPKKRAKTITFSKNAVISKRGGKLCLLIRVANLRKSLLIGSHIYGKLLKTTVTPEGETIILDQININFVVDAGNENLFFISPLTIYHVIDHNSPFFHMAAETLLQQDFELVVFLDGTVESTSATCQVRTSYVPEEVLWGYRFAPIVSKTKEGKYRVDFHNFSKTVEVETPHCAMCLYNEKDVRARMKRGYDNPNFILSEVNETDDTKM", "assay": "Whole-cell patch clamp, Kir1.1", "assay_type": "cell-based", "conditions": "mean ± SEM", "protocol": "Plasmids encoding WT human potassium channels Kir1.1, Kir2.1, Kir2.2, Kir4.1, and Kir4.2 were obtained from the Beijing Genomics Institute. All point mutations were constructed using the QuickChange II Site‐Directed Mutagenesis Kit (Stratagene) and subsequently verified by sequencing.\nCHO‐K1 cells were maintained in DMEM/F12 growth medium containing 10% fetal bovine serum. Plasmids encoding the target genes (3600 ng) and enhanced green fluorescent protein (400 ng) were cotransfected into cells using Lipofectamine 2000 (Invitrogen) in accordance with the manufacturer's instructions. Cells were seeded onto poly‐d‐lysine (PDL)‐coated glass coverslips 1 h prior to electrophysiological recordings. […]\nWhole‐cell patch‐clamp recordings were obtained either in transiently transfected CHO‐K1 cells or in primary cultured astrocytes at room temperature using standard patch‐clamp techniques with an Axopatch‐700B amplifier (Axon Instruments). […] Macroscopic currents generated by expressed potassium channels were recorded under the voltage‐clamp conditions with an internal pipette solution composed of (in mM): 140 KCl, 5 NaCl, 1 CaCl2, 1 MgCl2, 10 HEPES, and 10 EGTA, pH 7.2 adjusted with KOH. […] Astrocytic resting membrane potentials were recorded under current‐clamp conditions (I = 0 pA) using standard internal and external solutions, determined immediately after achieving whole‐cell mode."}},
  "note": "Read-outs that look alike come from different tables or passages of the source.",
  "data": [
    {"smiles": "c1ccc2c(c1)oc1ccc(Nc3ccnc(NCCCN4CCOCC4)n3)cc12", "note": "[JX3212, N^4-(dibenzo[b,d]furan-2-yl)-N^2-(3-morpholinopropyl)pyrimidine-2,4-diamine]", "values": [
      {"measurement": "concentration at 1 h", "setting": "[1]; kidney, read-out: Kidney Calculated Concentration", "value": "18400 ± 681", "unit": "ng/mL"},
      {"measurement": "Kp at 1 h", "setting": "[1]; kidney/plasma", "value": "78.9 ± 2.74"},
      {"measurement": "concentration at 1 h", "setting": "[1]; plasma, read-out: Plasma Calculated Concentration", "value": "234 ± 14.4", "unit": "ng/mL"},
      {"measurement": "NOR discrimination ratio vs vehicle (in words)", "setting": "mice", "value": "showed no effects"},
      {"measurement": "OBX: percentage of distance traveled in the center (in words)", "setting": "OBX C57BL/6J mice", "value": "increased percentage of distance traveled in the center"},
      {"measurement": "OBX: total distance traveled (in words)", "setting": "OBX C57BL/6J mice", "value": "did not affect the distance traveled"},
      {"measurement": "inhibition at 3 µM", "setting": "Kir1.1", "value": "17.8 ± 8.26", "unit": "%"}
    ]}
  ]
}
